Source: patent US11584755B2 (IDEAYA BIOSCIENCES, INC., priority 2017, dated 2023)

What was measured:
Format in all cases: biochemical
hFEN1 = hFEN1 (Homo sapiens (Human), UniProt P39748); test: Enzymatic IC50 assay, FAM-labeled DNA oligomer substrate, fluorescence intensity (FEN1); settings: hFEN1 70 pM, substrate 100 nM, reaction time 20 minutes, 23° C.
In short: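 FEN1, EXO1 or XPG was preincubated 15 min with compound, then the FAM-labelled DNA oligomer substrate was added in Tris-HCl pH 8.0 with 10 mM MgCl2 at 23° C. FEN1 was 70 pM with 100 nM substrate for 20 min, EXO1 6 nM with 30 nM for 60 min, and XPG 100 nM with 100 nM for 120 min. Reactions were EDTA-stopped and read by fluorescence intensity.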

hXPG = hXPG (Homo sapiens (Human), UniProt P28715); test: Enzymatic IC50 assay, FAM-labeled DNA oligomer substrate, fluorescence intensity (XPG); settings: hXPG 100 nM, substrate 100 nM, reaction time 120 minutes, 23° C.
Method: (§1) FEN1, EXO1 or XPG enzyme was incubated with compound or vehicle (DMSO) and the FAM-labeled DNA oligomer substrate in a microtiter plate. The stop buffer contains EDTA to stop the enzymatic reaction. The plate is read for fluorescence intensity. The high control (DMSO) with high fluorescence intensity represents no inhibition of enzymatic reaction while the low control (10 μM) with low fluorescence intensity represents full inhibition of enzymatic reaction.
(§2) • FEN1 • hFEN1: 70 pM • Substrate: 100 nM • Reaction time: 20 minutes • EXO1 • hEXO1: 6 nM, Isoforml • Substrate: 30 nM • Reaction time: 60 minutes • XPG • hXPG: 100 nM • Substrate: 100 nM • Reaction time: 120 minutes
(§3) Annealing Buffer: 50 mM Tris-HCl, 50 mM NaCl, 1 mM DTT Assay buffer: 50 mM Tris-HCl pH 8.0, 10 mM MgCl2, 0.01% BSA, 1 mM DTT Stop buffer: 50 mM EDTA in assay buffer Temperature: 23° C. Total volume: 40 μl Controls: • 0% inhibition control: DMSO • 100% inhibition control: 10 μM (final) 5-chloro-3-hydroxy-1,3-dihydroquinazoline-2,4-dione Enzyme Reaction and Detection: • 1. Prepare 25 μM intermediate stock of the substrate by diluting SEQ ID NO:1, SEQ ID NO:2, and SEQ ID NO:3 in annealing buffer, in a PCR tube. • 2. Place the PCR tube on a heat block, heat at 95° C. for 3 minutes, then drop in 0.2° C. increments over 2 minutes, stopping at 25° C. • 3. Remove the tube and let the tube cool at room temperature. • 4. Transfer 10 μL of 3× final concentration test compounds or DMSO to the appropriate wells of a microtiter plate. • 5. Transfer 10 μL of 3× final concentration enzyme in assay buffer or assay buffer alone to the appropriate wells. • 6. Incubate the plate at room temperature for 15 minutes. • 7. Transfer 10 μL of 3× substrate in assay buffer to all the test wells. • 8. Incubate the plate at room temperature for prescribed reaction time. • 9. Centrifuge the plate at 1000 rpm for 1 minute. • 10. Transfer 10 μL of stop buffer to all the test wells. • 11. Centrifuge the plate at 1000 rpm for 1 minute. • 12. Read the plate on a plate reader.

hEXO1, Isoform1 = hEXO1, Isoform1 (Homo sapiens (Human), UniProt Q9UQ84); test: Enzymatic IC50 assay, FAM-labeled DNA oligomer substrate, fluorescence intensity (EXO1); settings: hEXO1 6 nM, substrate 30 nM, reaction time 60 minutes, 23° C.
Method: as §1, §2, §3

Sequence of hEXO1, Isoform1 (Q9UQ84 whole entry, canonical isoform): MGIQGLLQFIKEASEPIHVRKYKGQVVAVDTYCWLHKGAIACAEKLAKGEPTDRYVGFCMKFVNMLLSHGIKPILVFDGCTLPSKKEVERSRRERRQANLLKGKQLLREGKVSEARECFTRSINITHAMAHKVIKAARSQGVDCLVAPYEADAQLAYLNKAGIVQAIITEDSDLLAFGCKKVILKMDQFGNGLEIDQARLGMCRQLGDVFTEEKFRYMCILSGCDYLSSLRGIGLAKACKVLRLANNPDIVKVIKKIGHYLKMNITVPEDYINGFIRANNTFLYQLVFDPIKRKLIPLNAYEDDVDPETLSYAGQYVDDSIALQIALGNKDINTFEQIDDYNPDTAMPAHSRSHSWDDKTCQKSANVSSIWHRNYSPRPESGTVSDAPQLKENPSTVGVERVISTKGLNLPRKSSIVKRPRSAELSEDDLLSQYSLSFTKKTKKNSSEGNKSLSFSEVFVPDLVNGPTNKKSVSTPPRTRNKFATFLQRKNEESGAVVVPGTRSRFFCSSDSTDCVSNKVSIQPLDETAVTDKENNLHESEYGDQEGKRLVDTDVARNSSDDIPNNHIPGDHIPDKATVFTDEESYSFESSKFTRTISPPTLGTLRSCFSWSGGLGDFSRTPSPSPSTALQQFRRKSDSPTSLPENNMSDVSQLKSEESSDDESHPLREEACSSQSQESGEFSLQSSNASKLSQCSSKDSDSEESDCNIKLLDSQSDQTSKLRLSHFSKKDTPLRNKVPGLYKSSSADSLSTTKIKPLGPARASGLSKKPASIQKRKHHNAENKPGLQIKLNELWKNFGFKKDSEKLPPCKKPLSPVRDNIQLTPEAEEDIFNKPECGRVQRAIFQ
Sequence of hFEN1 (P39748 whole entry): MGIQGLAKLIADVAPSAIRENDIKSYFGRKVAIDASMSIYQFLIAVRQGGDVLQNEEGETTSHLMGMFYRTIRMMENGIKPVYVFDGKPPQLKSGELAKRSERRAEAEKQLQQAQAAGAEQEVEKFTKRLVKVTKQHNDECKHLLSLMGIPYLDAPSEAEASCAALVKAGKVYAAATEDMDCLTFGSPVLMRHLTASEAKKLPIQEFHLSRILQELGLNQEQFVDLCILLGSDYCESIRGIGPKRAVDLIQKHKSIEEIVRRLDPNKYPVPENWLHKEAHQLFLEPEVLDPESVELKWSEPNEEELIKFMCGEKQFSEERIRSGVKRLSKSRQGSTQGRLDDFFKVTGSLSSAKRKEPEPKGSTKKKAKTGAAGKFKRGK
Sequence of hXPG (P28715 whole entry): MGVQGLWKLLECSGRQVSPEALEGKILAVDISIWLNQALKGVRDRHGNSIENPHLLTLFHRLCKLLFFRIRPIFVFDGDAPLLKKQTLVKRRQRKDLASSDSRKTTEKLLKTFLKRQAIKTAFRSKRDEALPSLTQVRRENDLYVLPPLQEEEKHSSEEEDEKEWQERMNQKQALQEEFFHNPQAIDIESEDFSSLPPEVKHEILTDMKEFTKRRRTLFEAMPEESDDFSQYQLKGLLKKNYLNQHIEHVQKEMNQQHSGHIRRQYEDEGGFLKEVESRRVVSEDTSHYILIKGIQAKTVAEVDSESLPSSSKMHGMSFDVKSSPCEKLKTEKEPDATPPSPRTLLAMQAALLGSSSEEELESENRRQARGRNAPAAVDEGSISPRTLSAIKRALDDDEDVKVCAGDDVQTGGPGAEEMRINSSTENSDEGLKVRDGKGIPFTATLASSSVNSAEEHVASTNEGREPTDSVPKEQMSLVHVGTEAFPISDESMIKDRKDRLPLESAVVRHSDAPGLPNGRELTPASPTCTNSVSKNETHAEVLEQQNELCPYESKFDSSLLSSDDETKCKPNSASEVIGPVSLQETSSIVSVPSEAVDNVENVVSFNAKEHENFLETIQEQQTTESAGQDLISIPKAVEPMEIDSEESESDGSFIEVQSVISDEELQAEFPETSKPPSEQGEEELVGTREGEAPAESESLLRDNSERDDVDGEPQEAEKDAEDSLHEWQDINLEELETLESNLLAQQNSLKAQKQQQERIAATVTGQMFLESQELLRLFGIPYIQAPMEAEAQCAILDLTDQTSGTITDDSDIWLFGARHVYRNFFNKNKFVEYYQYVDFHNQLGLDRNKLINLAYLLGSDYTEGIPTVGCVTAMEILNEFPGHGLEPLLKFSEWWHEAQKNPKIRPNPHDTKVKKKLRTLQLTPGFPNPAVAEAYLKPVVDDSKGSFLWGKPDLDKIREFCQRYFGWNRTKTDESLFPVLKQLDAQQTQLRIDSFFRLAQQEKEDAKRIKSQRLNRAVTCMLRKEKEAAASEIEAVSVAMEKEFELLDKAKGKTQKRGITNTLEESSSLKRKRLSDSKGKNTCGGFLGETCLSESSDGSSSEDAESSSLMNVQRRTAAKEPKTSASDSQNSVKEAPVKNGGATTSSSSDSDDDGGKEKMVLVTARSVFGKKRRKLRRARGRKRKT

Compound | IC50 (hFEN1) [nM] | IC50 (hXPG) [nM] | IC50 (hEXO1, Isoform1) [nM]
O=C(O)c1c(O)c(=O)n(Cc2cnc3ccccc3c2)c2ccsc12 [Example 101, 6-hydroxy-5-oxo-4-(quinolin-3-ylmethyl)-4,5-dihydrothieno[3,2-b]pyridine-7-carboxylic acid] | 250 to 750 | 2250 to 10000 | 250 to 750
COc1ccc(Cn2c(=O)c(O)c(C(=O)O)c3sccc32)cn1 [Example 98, 6-hydroxy-4-[(6-methoxypyridin-3-yl)methyl]-5-oxo-4,5-dihydrothieno[3,2-b]pyridine-7-carboxylic acid] | – | 2250 to 10000 | 2250 to 10000
CC(=O)Nc1cccc(-c2cccc(Cn3c(=O)c(O)c(C(=O)O)c4sccc43)c2)c1 [Example 2, 4-((3′-acetamido-[1,1′-biphenyl]-3-yl)methyl)-6-hydroxy-5-oxo-4,5-dihydrothieno[3,2-b]pyridine-7-carboxylic acid] | 250 to 750 | 2250 to 10000 | 2250 to 10000
NC(=O)Cn1cc(Cn2c(=O)c(O)c(C(=O)O)c3sccc32)cn1 [Example 136, 4-{[1-(2-amino-2-oxoethyl)-1H-pyrazol-4-yl]methyl}-6-hydroxy-5-oxo-4,5-dihydrothieno[3,2-b]pyridine-7-carboxylic acid] | < 200 | > 10000 | 2250 to 10000
Nc1ccc(Cn2c(=O)c(O)c(C(=O)O)c3sccc32)cc1 [Example 53, 4-(4-aminobenzyl)-6-hydroxy-5-oxo-4,5-dihydrothieno[3,2-b]pyridine-7-carboxylic acid] | < 200 | 2250 to 10000 | 2250 to 10000
COc1ccc(Cn2c(=O)c(O)c(C(=O)O)c3sc(Cc4ccccc4)cc32)cc1 [Example 29, 2-benzyl-6-hydroxy-4-(4-methoxybenzyl)-5-oxo-4,5-dihydrothieno[3,2-b]pyridine-7-carboxylic acid] | 2250 to 10000 | 2250 to 10000 | 2250 to 10000
O=C(O)c1c(O)c(=O)n(Cc2ccccc2)c2ccsc12 [Example 3, 4-benzyl-6-hydroxy-5-oxo-4,5-dihydrothieno[3,2-b]pyridine-7-carboxylic acid] | 750 to 2250 | 2250 to 10000 | 2250 to 10000
CS(=O)(=O)Nc1ccc(Cn2c(=O)c(O)c(C(=O)O)c3sccc32)cc1 [Example 16, 6-hydroxy-4-[[4-(methanesulfonamido)phenyl]methyl]-5-oxo-thieno[3,2-b]pyridine-7-carboxylic acid] | < 200 | 2250 to 10000 | 250 to 750
CC(=O)Nc1cccc(Cn2c(=O)c(O)c(C(=O)O)c3sccc32)c1 [Example 7, 4-[(3-acetamidophenyl)methyl]-6-hydroxy-5-oxo-thieno[3,2-b]pyridine-7-carboxylic acid] | < 200 | 2250 to 10000 | 750 to 2250
O=C(O)c1c(O)c(=O)n(Cc2ccc(Br)cc2)c2ccsc12 [Example 5, 4-(4-bromobenzyl)-6-hydroxy-5-oxo-4,5-dihydrothieno[3,2-b]pyridine-7-carboxylic acid] | 250 to 750 | 2250 to 10000 | 2250 to 10000
O=C(O)c1c(O)c(=O)n(Cc2cnn(Cc3cccnc3)c2)c2ccsc12 [Example 120, 6-hydroxy-5-oxo-4-{[1-(pyridin-3-ylmethyl)-1H-pyrazol-4-yl]methyl}-4,5-dihydrothieno[3,2-b]pyridine-7-carboxylic acid] | < 200 | 2250 to 10000 | 2250 to 10000
CS(=O)(=O)c1cccc(-n2cc(Cn3c(=O)c(O)c(C(=O)O)c4sccc43)cn2)c1 [Example 115, 6-hydroxy-4-({1-[3-(methylsulfonyl)phenyl]-1H-pyrazol-4-yl}methyl)-5-oxo-4,5-dihydrothieno[3,2-b]pyridine-7-carboxylic acid] | < 200 | 750 to 2250 | < 200
O=C(O)c1c(O)c(=O)n(Cc2cnn(Cc3ncc4ccccn34)c2)c2ccsc12 [Example 142] | < 200 | 2250 to 10000 | –
CNC(=O)c1cccc(Cn2c(=O)c(O)c(C(=O)O)c3sccc32)c1 [Example 66, 6-hydroxy-4-[3-(methylcarbamoyl)benzyl]-5-oxo-4,5-dihydrothieno[3,2-b]pyridine-7-carboxylic acid] | 2250 to 10000 | – | 2250 to 10000
CS(=O)(=O)c1ccc(-c2ncc(Cn3c(=O)c(O)c(C(=O)O)c4sccc43)s2)cc1 [Example 166, 6-hydroxy-4-({2-[4-(methylsulfonyl)phenyl)thiazol-5-yl)methyl)-5-oxo-4,5-dihydrothieno[3,2-b]pyridine-7-carboxylic acid] | 250 to 750 | – | 250 to 750
COc1ccc(Cn2c(=O)c(O)c(C(=O)O)c3sccc32)cc1Cl [Example 70, 4-(3-chloro-4-methoxybenzyl)-6-hydroxy-5-oxo-4,5-dihydrothieno[3,2-b]pyridine-7-carboxylic acid] | < 200 | – | 750 to 2250
O=C(O)c1c(O)c(=O)n(Cc2cnc3c(-c4ccncc4)cccn23)c2ccsc12 [Example 31, 6-hydroxy-5-oxo-4-{[8-(pyridin-4-yl)imidazo[1,2-a]pyridin-3-yl]methyl}-4,5-dihydrothieno[3,2-b]pyridine-7-carboxylic acid] | 2250 to 10000 | – | 2250 to 10000
Cc1nc(Cn2c(=O)c(O)c(C(=O)O)c3sccc32)co1 [Example 96, 6-hydroxy-4-((2-methyloxazol-4-yl)methyl)-5-oxo-4,5-dihydrothieno[3,2-b]pyridine-7-carboxylic acid] | > 10000 | – | > 10000
O=C(O)Cn1cc(Cn2c(=O)c(O)c(C(=O)O)c3sccc32)cn1 [Example 163, 4-{[1-(carboxymethyl)-1H-pyrazol-4-yl]methyl}-6-hydroxy-5-oxo-4,5-dihydrothieno[3,2-b]pyridine-7-carboxylic acid] | < 200 | – | 2250 to 10000
COc1ccc(-n2cc(Cn3c(=O)c(O)c(C(=O)O)c4sccc43)c(Br)n2)cc1 [Example 161, 4-{[3-bromo-1-(4-methoxyphenyl)-1H-pyrazol-4-yl]methyl}-6-hydroxy-5-oxo-4,5-dihydrothieno[3,2-b]pyridine-7-carboxylic acid] | 250 to 750 | – | 750 to 2250
O=C(O)c1c(O)c(=O)n(CC2CCCC2)c2ccsc12 [Example 45, 4-(cyclopentylmethyl)-6-hydroxy-5-oxo-4,5-dihydrothieno[3,2-b]pyridine-7-carboxylic acid] | 2250 to 10000 | – | 2250 to 10000
O=C(O)c1c(O)c(=O)n(Cc2cnc(-c3ccnc4ccccc34)s2)c2ccsc12 [Example 170, 6-hydroxy-5-oxo-4-{[2-(quinolin-4-yl)thiazol-5-yl]methyl}-4,5-dihydrothieno[3,2-b]pyridine-7-carboxylic acid] | 750 to 2250 | – | 750 to 2250
COc1ccc(Cn2cc(Cn3c(=O)c(O)c(C(=O)O)c4sccc43)cn2)cc1 [Example 126, 6-hydroxy-4-{[1-(4-methoxybenzyl)-1H-pyrazol-4-yl]methyl}-5-oxo-4,5-dihydrothieno[3,2-b]pyridine-7-carboxylic acid] | – | 2250 to 10000 | 2250 to 10000
Nc1ccc(Cn2c(=O)c(O)c(C(=O)O)c3sccc32)cn1 [Example 97, 4-[(6-aminopyridin-3-yl)methyl]-6-hydroxy-5-oxo-4,5-dihydrothieno[3,2-b]pyridine-7-carboxylic acid] | < 200 | – | 2250 to 10000
O=C(O)c1c(O)c(=O)n(Cc2ccccc2[N+](=O)[O-])c2ccsc12 [Example 37, 6-hydroxy-4-(2-nitrobenzyl)-5-oxo-4,5-dihydrothieno[3,2-b]pyridine-7-carboxylic acid] | 250 to 750 | – | 2250 to 10000
O=C(O)c1c(O)c(=O)n(Cc2cnc3ccccn23)c2ccsc12 [Example 100, 6-hydroxy-4-(imidazo[1,2-a]pyridin-3-ylmethyl)-5-oxo-4,5-dihydrothieno[3,2-b]pyridine-7-carboxylic acid] | – | 2250 to 10000 | 750 to 2250
